The values below come from patent US20070010671A1, “Novel quinazoline derivatives and methods of treatment related to the use thereof” (priority 2003, published 2007).

In the assay the target is MCH receptor (Homo sapiens, UniProt Q99705). The experiment in a line: High throughput functional screening FLIPR/FDSS6000: inhibition of MCH-evoked intracellular Ca2+ changes. In kind it is cell-based. The note with it: class by percent of control at 10^-7 M or IC50. The method in brief:
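Cells expressing constitutively active MCH receptor, loaded with 4 μM Fluo4-AM for 1 h at 37 °C, were pretreated 3 min with compound, then challenged with MCH (50 nM for antagonist testing). MCH-evoked [Ca2+]i transients followed by FLIPR or FDSS (ex 488/em 530 nm) over 290 s.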

Regarding `CN(C)c1nc(N[C@H]2CC[C@@H](CNC(=O)Nc3ccsc3)CC2)nc2ccccc12` [compound 764, N-[(cis-4-{[4-(dimethylamino)quinazolin-2-yl]amino}cyclohexyl)methyl]-N′-3-thienylurea], the class is recorded as 2 (Class 2: The value of percent of control at 10^−7 M was from 40% to 60% or the value of IC50 was from 50 nM to 200 nM.).
On to `CN(C)c1nc(N[C@H]2CC[C@@H](CNC(=O)Nc3ccc(C(C)(C)C)cc3)CC2)nc2ccccc12` [compound 765], for which the class is given as 3 (Class 3: The value of percent of control at 10^−7 M was more than 60% or the value of IC50 was more than 200 nM.).
Under `CCCCc1ccc(NC(=O)NC[C@H]2CC[C@@H](Nc3nc(N(C)C)c4ccccc4n3)CC2)c(C)c1` [compound 766] stands 3 (Class 3: The value of percent of control at 10^−7 M was more than 60% or the value of IC50 was more than 200 nM.); under `Cc1cc(NC(=O)NC[C@H]2CC[C@@H](Nc3nc(N(C)C)c4ccccc4n3)CC2)c(C(F)(F)F)o1` [compound 767, N-[(cis-4-{[4-(dimethylamino)quinazolin-2-yl]amino}cyclohexyl)methyl]-N′-[5-methyl-2-(trifluoromethyl)-3-furyl]urea], 1 (Class 1: The value of percent of control at 10^−7 M was less than 40% or the value of IC50 was less than 50 nM.).
The value for `CN(C)c1nc(N[C@H]2CC[C@@H](CNC(=O)Nc3ccc(-c4ccccc4)s3)CC2)nc2ccccc12` [compound 768] was 3 (Class 3: The value of percent of control at 10^−7 M was more than 60% or the value of IC50 was more than 200 nM.); that for `CN(C)c1nc(N[C@H]2CC[C@@H](CNC(=O)Nc3cc(F)cc4c3OCOC4)CC2)nc2ccccc12` [compound 769, N-[(cis-4-{[4-(dimethylamino)quinazolin-2-yl]amino}cyclohexyl)methyl]-N′-(6-fluoro-4H-1,3-benzodioxin-8-yl)urea] was 2 (Class 2: The value of percent of control at 10^−7 M was from 40% to 60% or the value of IC50 was from 50 nM to 200 nM.).
For `CN(C)c1nc(N[C@H]2CC[C@@H](CNC(=O)NC3CCN(C(=O)OCc4ccccc4)CC3)CC2)nc2ccccc12` [compound 770], the class is reported as 3 (Class 3: The value of percent of control at 10^−7 M was more than 60% or the value of IC50 was more than 200 nM.).
The value for `Cc1ccc2nc(-c3ccc(NC(=O)NC[C@H]4CC[C@@H](Nc5nc(N(C)C)c6ccccc6n5)CC4)cc3)sc2c1` [compound 771] was 3 (Class 3: The value of percent of control at 10^−7 M was more than 60% or the value of IC50 was more than 200 nM.).
The value for `CN(C)c1ccc(NC(=O)NC[C@H]2CC[C@@H](Nc3nc(N(C)C)c4ccccc4n3)CC2)cc1` [compound 772] was 3 (Class 3: The value of percent of control at 10^−7 M was more than 60% or the value of IC50 was more than 200 nM.).
The value for `CN(C)c1nc(N[C@H]2CC[C@@H](CNC(=O)Nc3cc(Cl)nc(Cl)c3)CC2)nc2ccccc12` [compound 773] was 3 (Class 3: The value of percent of control at 10^−7 M was more than 60% or the value of IC50 was more than 200 nM.); that for `Cc1noc(C)c1NC(=O)NC[C@H]1CC[C@@H](Nc2nc(N(C)C)c3ccccc3n2)CC1` [compound 774, N-[(cis-4-{[4-(dimethylamino)quinazolin-2-yl]amino}cyclohexyl)methyl]-N′-(3,5-dimethylisoxazol-4-yl)urea] was 2 (Class 2: The value of percent of control at 10^−7 M was from 40% to 60% or the value of IC50 was from 50 nM to 200 nM.).
In the case of `Cc1noc(-c2ccccc2)c1NC(=O)NC[C@H]1CC[C@@H](Nc2nc(N(C)C)c3ccccc3n2)CC1` [compound 775], the class is reported as 1 (Class 1: The value of percent of control at 10^−7 M was less than 40% or the value of IC50 was less than 50 nM.).
Under `Cc1onc(-c2ccccc2)c1NC(=O)NC[C@H]1CC[C@@H](Nc2nc(N(C)C)c3ccccc3n2)CC1` [compound 776] stands 2 (Class 2: The value of percent of control at 10^−7 M was from 40% to 60% or the value of IC50 was from 50 nM to 200 nM.); under `C#CCNC(=S)NC[C@H]1CC[C@@H](Nc2nc(N(C)C)c3ccccc3n2)CC1` [compound 777], 3 (Class 3: The value of percent of control at 10^−7 M was more than 60% or the value of IC50 was more than 200 nM.).
The value for `CN(C)c1nc(N[C@H]2CC[C@@H](CNC(=S)Nc3ccc(S(=O)(=O)N4CCCCC4)cc3)CC2)nc2ccccc12` [compound 778] was 3 (Class 3: The value of percent of control at 10^−7 M was more than 60% or the value of IC50 was more than 200 nM.); that for `CN(C)c1nc(N[C@H]2CC[C@@H](CNC(=S)NCCC3=CCCCC3)CC2)nc2ccccc12` [compound 779] was 3 (Class 3: The value of percent of control at 10^−7 M was more than 60% or the value of IC50 was more than 200 nM.).
The value for `Cc1cccc(NC(=S)NC[C@H]2CC[C@@H](Nc3nc(N(C)C)c4ccccc4n3)CC2)c1C` [compound 780] was 3 (Class 3: The value of percent of control at 10^−7 M was more than 60% or the value of IC50 was more than 200 nM.); that for `CN(C)c1nc(N[C@H]2CC[C@@H](CNC(=S)Nc3c(F)cc(Br)cc3Br)CC2)nc2ccccc12` [compound 781, N-(2,4-dibromo-6-fluorophenyl)-N′-[(cis-4-{[4-(dimethylamino)quinazolin-2-yl]amino}cyclohexyl)methyl]thiourea] was 2 (Class 2: The value of percent of control at 10^−7 M was from 40% to 60% or the value of IC50 was from 50 nM to 200 nM.).
Take `Cc1cc(Cl)cc(Cl)c1NC(=S)NC[C@H]1CC[C@@H](Nc2nc(N(C)C)c3ccccc3n2)CC1` [compound 782, N-(2,4-dichloro-6-methylphenyl)-N′-[(cis-4-{[4-(dimethylamino)quinazolin-2-yl]amino}cyclohexyl)methyl]thiourea]: the class is 2 (Class 2: The value of percent of control at 10^−7 M was from 40% to 60% or the value of IC50 was from 50 nM to 200 nM.).
Take `Cc1ccc(C)c(NC(=S)NC[C@H]2CC[C@@H](Nc3nc(N(C)C)c4ccccc4n3)CC2)c1` [compound 783, N-[(cis-4-{[4-(dimethylamino)quinazolin-2-yl]amino}cyclohexyl)methyl]-N′-(2,5-dimethylphenyl)thiourea]: the class was 2 (Class 2: The value of percent of control at 10^−7 M was from 40% to 60% or the value of IC50 was from 50 nM to 200 nM.).
In the case of `CC(C)c1ccc(NC(=S)NC[C@H]2CC[C@@H](Nc3nc(N(C)C)c4ccccc4n3)CC2)c(Br)c1` [compound 784], the class is reported as 3 (Class 3: The value of percent of control at 10^−7 M was more than 60% or the value of IC50 was more than 200 nM.).
The value for `CN(C)c1nc(N[C@H]2CC[C@@H](CNC(=S)Nc3cc(F)ccc3Br)CC2)nc2ccccc12` [compound 785] was 3 (Class 3: The value of percent of control at 10^−7 M was more than 60% or the value of IC50 was more than 200 nM.).
Turning to `CCOc1ccccc1NC(=S)NC[C@H]1CC[C@@H](Nc2nc(N(C)C)c3ccccc3n2)CC1` [compound 786, N-[(cis-4-{[4-(dimethylamino)quinazolin-2-yl]amino}cyclohexyl)methyl]-N′-(2-ethoxyphenyl)thiourea], the class is 2 (Class 2: The value of percent of control at 10^−7 M was from 40% to 60% or the value of IC50 was from 50 nM to 200 nM.).
Under `Cc1cccc(C(C)C)c1NC(=S)NC[C@H]1CC[C@@H](Nc2nc(N(C)C)c3ccccc3n2)CC1` [compound 787] stands 1 (Class 1: The value of percent of control at 10^−7 M was less than 40% or the value of IC50 was less than 50 nM.); under `COc1ccccc1CNC(=S)NC[C@H]1CC[C@@H](Nc2nc(N(C)C)c3ccccc3n2)CC1` [compound 788], 3 (Class 3: The value of percent of control at 10^−7 M was more than 60% or the value of IC50 was more than 200 nM.).
The value for `CN(C)c1nc(N[C@H]2CC[C@@H](CNC(=S)Nc3ccc4c(c3)OCCO4)CC2)nc2ccccc12` [compound 789] was 3 (Class 3: The value of percent of control at 10^−7 M was more than 60% or the value of IC50 was more than 200 nM.).
`Cc1ccc(NC(=S)NC[C@H]2CC[C@@H](Nc3nc(N(C)C)c4ccccc4n3)CC2)cc1C` [compound 790]: the class was 3 (Class 3: The value of percent of control at 10^−7 M was more than 60% or the value of IC50 was more than 200 nM.).
The value for `CN(C)c1nc(N[C@H]2CC[C@@H](CNC(=S)Nc3ccc4c(c3)OCO4)CC2)nc2ccccc12` [compound 791] was 3 (Class 3: The value of percent of control at 10^−7 M was more than 60% or the value of IC50 was more than 200 nM.).
Under `Cc1c(Cl)cccc1NC(=S)NC[C@H]1CC[C@@H](Nc2nc(N(C)C)c3ccccc3n2)CC1` [compound 792] stands 3 (Class 3: The value of percent of control at 10^−7 M was more than 60% or the value of IC50 was more than 200 nM.).
In the case of `CN(C)c1nc(N[C@H]2CC[C@@H](CNC(=S)Nc3ccc(Br)cc3OC(F)(F)F)CC2)nc2ccccc12` [compound 793], the class was 2 (Class 2: The value of percent of control at 10^−7 M was from 40% to 60% or the value of IC50 was from 50 nM to 200 nM.).
Under `COc1cc(NC(=S)NC[C@H]2CC[C@@H](Nc3nc(N(C)C)c4ccccc4n3)CC2)c(OC)cc1Cl` [compound 794] stands 3 (Class 3: The value of percent of control at 10^−7 M was more than 60% or the value of IC50 was more than 200 nM.).
Under `CN(C)c1nc(N[C@H]2CC[C@@H](CNC(=S)NCCCCc3ccccc3)CC2)nc2ccccc12` [compound 795] stands 3 (Class 3: The value of percent of control at 10^−7 M was more than 60% or the value of IC50 was more than 200 nM.); under `CN(C)c1nc(N[C@H]2CC[C@@H](CNC(=S)Nc3ccc(C(C)(C)C)cc3)CC2)nc2ccccc12` [compound 796], 3 (Class 3: The value of percent of control at 10^−7 M was more than 60% or the value of IC50 was more than 200 nM.).
